Data reported in PubChem BioAssay AID652166 (The Scripps Research Institute Molecular Screening Center, 2013).
Activity calls are given as the source filed them. No rule for the calls is given here.

System: NOD2-RIPK2 signaling cell assay, absorbance 620 nm
Assay: cellular NOD2-RIPK2 pathway inhibition potency – cell-based, absorbance 620 nm, late-stage follow-up (AID 652166)

| SMILES | IC50 |
| --- | --- |
| O=S(=O)(c1ccc(F)cc1)N1CCCCCC1 | > 10 µM (inactive) |
| Cc1cc(S(=O)(=O)N2CCCCCC2)ccc1F | > 10 µM (inactive) |
| O=[N+]([O-])c1cccc(S(=O)(=O)N2CCCCCC2)c1 | > 10 µM (inactive) |
| Cc1ccc(S(=O)(=O)N2CCCCCC2)cc1[N+](=O)[O-] | > 10 µM (inactive) |
| Cc1ncc([N+](=O)[O-])n1Cc1ccc(Cl)c(Cl)c1 | > 10 µM (inactive) |
| O=[N+]([O-])c1cc(S(=O)(=O)N2CCCCCC2)ccc1F | > 10 µM (inactive) |

Now from value to molecule:

| IC50 | SMILES |
| --- | --- |
| > 10 µM (inactive) | Cc1ccc(C(C[N+](=O)[O-])n2nc(C)cc2C)cc1 (stereo unspecified) |
| > 10 µM (inactive) | O=S(=O)(c1ccccc1)N1CCCCCC1 |
| > 10 µM (inactive) | Cc1nc([N+](=O)[O-])c(Br)n1Cc1ccc(Cl)c(Cl)c1 |
| > 10 µM (inactive) | Cc1nc([N+](=O)[O-])c(Br)n1Cc1ccccc1 |
| > 10 µM (inactive) | COc1ccc(C(C[N+](=O)[O-])n2nc(C)cc2C)cc1 (stereo unspecified) |
